Measurements from patent publication US20240132521A1, “COMPOUNDS AND METHODS FOR MODULATING HER2” (Iambic Therapeutics, Inc., priority 2022, published 2024).

Key:
Format in all cases: cell-based
[1] = biological target: BaF3_HER2WT cells (Homo sapiens, UniProt P04626); experiment: Cell growth inhibition assay (CellTiterGlo), BaF3_HER2WT; settings: 3-day treatment, CellTiterGlo, read-out: Cell growth inhibition activity, HER2 WT
[2] = biological target: BaF3_HER2YVMA cells (Homo sapiens, UniProt P04626, DUP772-775, cells depend on it); experiment: Cell growth inhibition assay (CellTiterGlo), BaF3_HER2YVMA; settings: 3-day treatment, CellTiterGlo, read-out: Cell growth inhibition activity, HER2 - YVMA
BaF3_HER2YVMA cells, sequence (P04626 with tags, fused parts or gaps DUP772-775): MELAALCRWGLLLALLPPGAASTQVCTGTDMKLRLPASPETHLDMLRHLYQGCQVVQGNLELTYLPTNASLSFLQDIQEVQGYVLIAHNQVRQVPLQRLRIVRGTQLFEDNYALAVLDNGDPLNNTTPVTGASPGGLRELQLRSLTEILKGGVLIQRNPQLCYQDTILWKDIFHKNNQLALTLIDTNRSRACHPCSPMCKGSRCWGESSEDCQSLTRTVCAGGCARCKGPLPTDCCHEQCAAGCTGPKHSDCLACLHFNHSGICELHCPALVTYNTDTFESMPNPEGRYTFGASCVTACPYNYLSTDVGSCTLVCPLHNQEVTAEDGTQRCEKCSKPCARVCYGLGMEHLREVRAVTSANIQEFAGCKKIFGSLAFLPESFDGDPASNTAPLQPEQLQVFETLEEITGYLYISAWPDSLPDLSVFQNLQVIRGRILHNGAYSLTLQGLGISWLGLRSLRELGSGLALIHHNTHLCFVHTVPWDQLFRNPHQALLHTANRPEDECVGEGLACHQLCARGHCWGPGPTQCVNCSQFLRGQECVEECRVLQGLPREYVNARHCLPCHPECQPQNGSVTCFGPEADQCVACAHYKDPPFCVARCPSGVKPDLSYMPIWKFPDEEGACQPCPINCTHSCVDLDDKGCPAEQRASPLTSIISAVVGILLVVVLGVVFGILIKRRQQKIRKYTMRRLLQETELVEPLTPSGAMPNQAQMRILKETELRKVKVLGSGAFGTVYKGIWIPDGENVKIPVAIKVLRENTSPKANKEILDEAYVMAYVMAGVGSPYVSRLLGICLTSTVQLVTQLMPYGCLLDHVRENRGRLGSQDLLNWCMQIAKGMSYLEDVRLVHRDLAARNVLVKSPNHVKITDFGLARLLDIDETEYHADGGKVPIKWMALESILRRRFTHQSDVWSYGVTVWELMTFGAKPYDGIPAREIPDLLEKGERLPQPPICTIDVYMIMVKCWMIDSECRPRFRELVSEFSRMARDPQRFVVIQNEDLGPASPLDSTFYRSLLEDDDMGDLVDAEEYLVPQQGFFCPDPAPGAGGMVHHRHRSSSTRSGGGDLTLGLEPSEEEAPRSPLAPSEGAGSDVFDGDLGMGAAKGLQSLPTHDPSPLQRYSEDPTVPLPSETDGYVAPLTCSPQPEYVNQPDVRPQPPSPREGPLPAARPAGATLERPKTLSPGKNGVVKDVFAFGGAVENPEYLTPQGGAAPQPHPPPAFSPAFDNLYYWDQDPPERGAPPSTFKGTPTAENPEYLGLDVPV

[3] = biological target: BaF3_EGFRWT cells (Homo sapiens, UniProt P00533); experiment: Cell growth inhibition assay (CellTiterGlo), BaF3_EGFRWT; settings: 3-day treatment, CellTiterGlo, read-out: Cell growth inhibition activity, EGFR WT
BaF3_EGFRWT cells, sequence (P00533 whole entry, change not shown): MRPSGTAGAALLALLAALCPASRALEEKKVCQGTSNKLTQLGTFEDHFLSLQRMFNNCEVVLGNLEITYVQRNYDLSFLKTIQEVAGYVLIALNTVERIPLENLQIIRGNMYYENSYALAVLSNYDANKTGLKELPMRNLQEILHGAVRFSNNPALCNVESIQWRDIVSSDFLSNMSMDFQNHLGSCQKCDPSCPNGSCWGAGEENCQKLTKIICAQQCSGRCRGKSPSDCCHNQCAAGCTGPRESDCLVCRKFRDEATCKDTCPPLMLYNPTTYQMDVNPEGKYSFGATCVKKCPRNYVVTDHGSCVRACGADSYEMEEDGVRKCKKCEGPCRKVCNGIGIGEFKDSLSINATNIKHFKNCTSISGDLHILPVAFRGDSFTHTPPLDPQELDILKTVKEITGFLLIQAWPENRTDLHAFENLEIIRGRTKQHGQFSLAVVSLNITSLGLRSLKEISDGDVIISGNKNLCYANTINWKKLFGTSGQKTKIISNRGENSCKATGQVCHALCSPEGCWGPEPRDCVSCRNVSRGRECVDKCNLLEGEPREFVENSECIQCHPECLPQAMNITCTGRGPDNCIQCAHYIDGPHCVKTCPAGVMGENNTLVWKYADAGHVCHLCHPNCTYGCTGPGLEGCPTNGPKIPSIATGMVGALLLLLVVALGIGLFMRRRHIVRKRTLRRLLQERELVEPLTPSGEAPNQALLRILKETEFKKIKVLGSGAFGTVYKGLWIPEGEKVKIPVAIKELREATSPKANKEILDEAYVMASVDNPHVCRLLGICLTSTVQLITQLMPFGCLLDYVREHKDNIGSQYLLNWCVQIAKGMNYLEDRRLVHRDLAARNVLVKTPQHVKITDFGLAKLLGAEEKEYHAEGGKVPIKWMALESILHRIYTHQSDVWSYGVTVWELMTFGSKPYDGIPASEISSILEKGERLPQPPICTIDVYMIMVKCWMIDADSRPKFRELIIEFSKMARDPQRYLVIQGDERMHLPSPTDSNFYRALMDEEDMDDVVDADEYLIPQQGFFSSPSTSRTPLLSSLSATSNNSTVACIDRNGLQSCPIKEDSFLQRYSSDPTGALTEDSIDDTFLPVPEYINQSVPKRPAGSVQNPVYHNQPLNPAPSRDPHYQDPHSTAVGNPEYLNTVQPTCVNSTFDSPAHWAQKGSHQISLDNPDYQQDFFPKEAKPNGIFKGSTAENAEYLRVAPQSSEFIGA

BaF3_HER2WT cells, sequence (P04626 whole entry, change not shown): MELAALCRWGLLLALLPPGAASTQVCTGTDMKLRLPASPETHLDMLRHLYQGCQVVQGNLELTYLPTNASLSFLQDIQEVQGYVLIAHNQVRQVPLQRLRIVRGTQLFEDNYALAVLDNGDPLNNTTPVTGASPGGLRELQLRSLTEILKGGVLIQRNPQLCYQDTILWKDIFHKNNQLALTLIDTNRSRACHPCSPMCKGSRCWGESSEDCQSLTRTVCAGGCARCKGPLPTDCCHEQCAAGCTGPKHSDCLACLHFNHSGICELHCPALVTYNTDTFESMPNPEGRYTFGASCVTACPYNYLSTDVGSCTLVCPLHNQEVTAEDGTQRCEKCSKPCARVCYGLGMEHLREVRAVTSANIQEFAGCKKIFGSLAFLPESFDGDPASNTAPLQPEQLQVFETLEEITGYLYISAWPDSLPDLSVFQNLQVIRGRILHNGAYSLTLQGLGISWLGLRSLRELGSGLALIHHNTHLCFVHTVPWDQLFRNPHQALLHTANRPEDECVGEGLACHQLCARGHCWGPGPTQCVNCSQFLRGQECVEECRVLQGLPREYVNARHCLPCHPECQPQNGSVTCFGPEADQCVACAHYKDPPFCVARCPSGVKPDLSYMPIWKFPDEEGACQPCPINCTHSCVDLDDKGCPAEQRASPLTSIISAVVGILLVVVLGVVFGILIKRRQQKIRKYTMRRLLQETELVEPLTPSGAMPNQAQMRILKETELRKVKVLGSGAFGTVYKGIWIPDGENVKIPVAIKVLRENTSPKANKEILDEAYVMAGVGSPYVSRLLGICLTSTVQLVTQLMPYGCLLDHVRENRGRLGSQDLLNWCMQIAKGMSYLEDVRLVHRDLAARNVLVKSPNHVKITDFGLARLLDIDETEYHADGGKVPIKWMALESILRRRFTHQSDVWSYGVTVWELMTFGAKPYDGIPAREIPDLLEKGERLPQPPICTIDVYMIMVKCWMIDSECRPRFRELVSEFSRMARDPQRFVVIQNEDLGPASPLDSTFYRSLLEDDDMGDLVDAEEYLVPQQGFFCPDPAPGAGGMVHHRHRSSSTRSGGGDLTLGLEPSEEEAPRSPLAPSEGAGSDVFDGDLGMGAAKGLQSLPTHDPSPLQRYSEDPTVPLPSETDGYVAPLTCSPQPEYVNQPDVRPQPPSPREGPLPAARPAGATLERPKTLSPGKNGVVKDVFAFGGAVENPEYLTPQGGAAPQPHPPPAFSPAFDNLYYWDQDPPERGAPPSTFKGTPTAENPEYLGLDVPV

SMILES | GI50 [1] [nM] | GI50 [2] [nM] | GI50 [3] [nM]
C=CC(=O)N1CCC2CCC(C1)N2c1ccn2ncnc(Nc3ccc(Oc4ccn5ncnc5c4)c(C)c3)c12 (stereo not drawn) [Example 55, 1-(9-(4-((4-([1,2,4]triazolo[1,5-a]pyridin-7-yloxy)-3-methylphenyl)amino)pyrrolo[2,1-f][1,2,4]triazin-5-yl)-3,9-diazabicyclo[4.2.1]nonan-3-yl)prop-2-en-1-one] | < 200 | 500 to 1500 | 1500 to 5000
Cc1cc(Nc2ncnn3ccc(C4CCN(C(=O)/C=C/CN5CCOCC5)CC4)c23)ccc1Oc1ccn2ncnc2c1 [Example 56, (E)-1-(4-(4-((4-([1,2,4]triazolo[1,5-a]pyridin-7-yloxy)-3-methylphenyl)amino)pyrrolo[2,1-f][1,2,4]triazin-5-yl)piperidin-1-yl)-4-morpholinobut-2-en-1-one] | < 200 | < 200 | 1500 to 5000
Cc1cc(Nc2ncnn3ccc(C4CCN(C(=O)/C=C/CN5CCCCC5)CC4)c23)ccc1Oc1ccn2ncnc2c1 [Example 57, (E)-1-(4-(4-((4-([1,2,4]triazolo[1,5-a]pyridin-7-yloxy)-3-methylphenyl)amino)pyrrolo[2,1-f][1,2,4]triazin-5-yl)piperidin-1-yl)-4-(piperidin-1-yl)but-2-en-1-one] | < 200 | < 200 | 1500 to 5000
COC/C=C/C(=O)N1CCC(c2ccn3ncnc(Nc4ccc(Oc5ccn6ncnc6c5)c(C)c4)c23)CC1 [Example 58, (E)-1-(4-(4-((4-([1,2,4]triazolo[1,5-a]pyridin-7-yloxy)-3-methylphenyl)amino)pyrrolo[2,1-f][1,2,4]triazin-5-yl)piperidin-1-yl)-4-methoxybut-2-en-1-one] | < 200 | 500 to 1500 | 1500 to 5000
C#CCN(C)C/C=C/C(=O)N1CCC(c2ccn3ncnc(Nc4ccc(Oc5ccn6ncnc6c5)c(C)c4)c23)CC1 [Example 59, (E)-1-(4-(4-((4-([1,2,4]triazolo[1,5-a]pyridin-7-yloxy)-3-methylphenyl)amino)pyrrolo[2,1-f][1,2,4]triazin-5-yl)piperidin-1-yl)-4-(methyl(prop-2-yn-1-yl)amino)but-2-en-1-one] | < 200 | 200 to 500 | 1500 to 5000
Cc1cc(Nc2ncnn3ccc(C4CN(C(=O)/C=C/CN5CCC(F)CC5)C4)c23)ccc1Oc1ccn2ncnc2c1 [Example 62, (E)-1-(3-(4-((4-([1,2,4]triazolo[1,5-a]pyridin-7-yloxy)-3-methylphenyl)amino)pyrrolo[2,1-f][1,2,4]triazin-5-yl)azetidin-1-yl)-4-(4-fluoropiperidin-1-yl)but-2-en-1-one] | < 200 | < 200 | 1500 to 5000
Cc1cc(Nc2ncnn3ccc(N4CCN(C(=O)C(F)Cl)CC(F)(F)C4)c23)ccc1Oc1ccn2ncnc2c1 (stereo not drawn) [Example 63, 1-(4-(4-((4-([1,2,4]triazolo[1,5-a]pyridin-7-yloxy)-3-methylphenyl)amino)pyrrolo[2,1-f][1,2,4]triazin-5-yl)-6,6-difluoro-1,4-diazepan-1-yl)-2-chloro-2-fluoroethan-1-one] | 500 to 1500 | 500 to 1500 | 1500 to 5000
Cc1cc(Nc2ncnn3ccc(C4CCN(C(=O)C#CCN(C)C)CC4)c23)ccc1Oc1ccn2ncnc2c1 [Example 64, 1-(4-(4-((4-([1,2,4]triazolo[1,5-a]pyridin-7-yloxy)-3-methylphenyl)amino)pyrrolo[2,1-f][1,2,4]triazin-5-yl)piperidin-1-yl)-4-(dimethylamino)but-2-yn-1-one] | < 200 | < 200 | 200 to 500
Cc1cc(Nc2ncnn3ccc(C4CCN(C(=O)/C=C/C5CCCN5C)CC4)c23)ccc1Oc1ccn2ncnc2c1 (stereo not drawn) [Example 65, (E)-1-(4-(4-((4-([1,2,4]triazolo[1,5-a]pyridin-7-yloxy)-3-methylphenyl)amino)pyrrolo[2,1-f][1,2,4]triazin-5-yl)piperidin-1-yl)-3-(1-methylpyrrolidin-2-yl)prop-2-en-1-one] | < 200 | < 200 | 1500 to 5000
Cc1cc(Nc2ncnn3ccc(C4CN(C(=O)/C=C/C5CCCN5C)C4)c23)ccc1Oc1ccn2ncnc2c1 (stereo not drawn) [Example 66, (E)-1-(3-(4-((4-([1,2,4]triazolo[1,5-a]pyridin-7-yloxy)-3-methylphenyl)amino)pyrrolo[2,1-f][1,2,4]triazin-5-yl)azetidin-1-yl)-3-(1-methylpyrrolidin-2-yl)prop-2-en-1-one] | < 200 | < 200 | 1500 to 5000
C=C(CN(C)C)C(=O)N1CC(c2ccn3ncnc(Nc4ccc(Oc5ccc6c(c5)ncn6C)c(C)c4)c23)C1 [Example 67, 2-((dimethylamino)methyl)-1-(3-(4-((3-methyl-4-((1-methyl-1H-benzo[d]imidazol-5-yl)oxy)phenyl)amino)pyrrolo[2,1-f][1,2,4]triazin-5-yl)azetidin-1-yl)prop-2-en-1-one] | < 200 | < 200 | 500 to 1500
Cc1cc(Nc2ncnn3ccc(N4CCCC(N(C)C(=O)/C=C/CN(C)C)C4)c23)ccc1Oc1ccn2ncnc2c1 (stereo not drawn) [Example 68, (E)-N-(1-(4-((4-([1,2,4]triazolo[1,5-a]pyridin-7-yloxy)-3-methylphenyl)amino)pyrrolo[2,1-f][1,2,4]triazin-5-yl)piperidin-3-yl)-4-(dimethylamino)-N-methylbut-2-enamide] | < 200 | < 200 | 1500 to 5000
C=CC(=O)N(C)C1CCCN(c2ccn3ncnc(Nc4ccc(Oc5ccn6ncnc6c5)c(C)c4)c23)C1 (stereo not drawn) [Example 69, N-(1-(4-((4-([1,2,4]triazolo[1,5-a]pyridin-7-yloxy)-3-methylphenyl)amino)pyrrolo[2,1-f][1,2,4]triazin-5-yl)piperidin-3-yl)-N-methylacrylamide] | < 200 | 200 to 500 | 1500 to 5000
Cc1cc(Nc2ncnn3ccc(N4CCC(N(C)C(=O)/C=C/CN(C)C)C4)c23)ccc1Oc1ccn2ncnc2c1 (stereo not drawn) [Example 70, (E)-N-(1-(4-((4-([1,2,4]triazolo[1,5-a]pyridin-7-yloxy)-3-methylphenyl)amino)pyrrolo[2,1-f][1,2,4]triazin-5-yl)pyrrolidin-3-yl)-4-(dimethylamino)-N-methylbut-2-enamide] | < 200 | < 200 | 1500 to 5000
C=CC(=O)N(C)C1CCN(c2ccn3ncnc(Nc4ccc(Oc5ccn6ncnc6c5)c(C)c4)c23)C1 (stereo not drawn) [Example 72, N-(1-(4-((4-([1,2,4]triazolo[1,5-a]pyridin-7-yloxy)-3-methylphenyl)amino)pyrrolo[2,1-f][1,2,4]triazin-5-yl)pyrrolidin-3-yl)-N-methylacrylamide] | < 200 | < 200 | 1500 to 5000

The next lines start with the values.

GI50 [1] [nM] | GI50 [2] [nM] | GI50 [3] [nM] | SMILES
< 200 | 200 to 500 | 1500 to 5000 | Cc1cc(Nc2ncnn3ccc(N4CC(NC(=O)/C=C/CN(C)C)C4)c23)ccc1Oc1ccn2ncnc2c1 [Example 71, (E)-N-(1-(4-((4-([1,2,4]triazolo[1,5-a]pyridin-7-yloxy)-3-methylphenyl)amino)pyrrolo[2,1-f][1,2,4]triazin-5-yl)azetidin-3-yl)-4-(dimethylamino)but-2-enamide]
< 200 | 500 to 1500 | 1500 to 5000 | Cc1cc(Nc2ncnn3ccc(N4CCC(N(C)C(=O)/C=C/CN(C)C)CC4)c23)ccc1Oc1ccn2ncnc2c1 [Example 73, (E)-N-(1-(4-((4-([1,2,4]triazolo[1,5-a]pyridin-7-yloxy)-3-methylphenyl)amino)pyrrolo[2,1-f][1,2,4]triazin-5-yl)piperidin-4-yl)-4-(dimethylamino)-N-methylbut-2-enamide]
< 200 | 500 to 1500 | 1500 to 5000 | C=CC(=O)N(C)C1CCN(c2ccn3ncnc(Nc4ccc(Oc5ccn6ncnc6c5)c(C)c4)c23)CC1 [Example 74, N-(1-(4-((4-([1,2,4]triazolo[1,5-a]pyridin-7-yloxy)-3-methylphenyl)amino)pyrrolo[2,1-f][1,2,4]triazin-5-yl)piperidin-4-yl)-N-methylacrylamide]
< 200 | < 200 | 500 to 1500 | C=CC(=O)N1CCN(c2ccn3ncnc(Nc4ccc(Oc5ccn6ncnc6c5)c(C)c4)c23)CC12CC2 [Example 75, 1-(7-(4-((4-([1,2,4]triazolo[1,5-a]pyridin-7-yloxy)-3-methylphenyl)amino)pyrrolo[2,1-f][1,2,4]triazin-5-yl)-4,7-diazaspiro[2.5]octan-4-yl)prop-2-en-1-one]
< 200 | 500 to 1500 | 1500 to 5000 | C=CC(=O)NC1CCCN(c2ccn3ncnc(Nc4ccc(Oc5ccn6ncnc6c5)c(C)c4)c23)C1 (stereo not drawn) [Example 76, N-(1-(4-((4-([1,2,4]triazolo[1,5-a]pyridin-7-yloxy)-3-methylphenyl)amino)pyrrolo[2,1-f][1,2,4]triazin-5-yl)piperidin-3-yl)acrylamide]
200 to 500 | 1500 to 5000 | 1500 to 5000 | C=CC(=O)N1CC(N(C)c2ccn3ncnc(Nc4ccc(Oc5ccn6ncnc6c5)c(C)c4)c23)C1 [Example 77, 1-(3-((4-((4-([1,2,4]triazolo[1,5-a]pyridin-7-yloxy)-3-methylphenyl)amino)pyrrolo[2,1-f][1,2,4]triazin-5-yl)(methyl)amino)azetidin-1-yl)prop-2-en-1-one]
< 200 | 200 to 500 | 1500 to 5000 | C=CC(=O)NC1CCN(c2ccn3ncnc(Nc4ccc(Oc5ccn6ncnc6c5)c(C)c4)c23)CC1 [Example 78, N-(1-(4-((4-([1,2,4]triazolo[1,5-a]pyridin-7-yloxy)-3-methylphenyl)amino)pyrrolo[2,1-f][1,2,4]triazin-5-yl)piperidin-4-yl)acrylamide]
